Data set [1] has as its target CXCR2 (Homo sapiens (Human), UniProt P25025). Description: PathHunter CXCR2 β-arrestin cell assay, antagonism of CXCL8 (EC80). In kind it is cell-based. The note with it: PathHunter CXCR2 β-arrestin cells, CXCL8 agonist at EC80. The protocol:
The IC50 values were determined to evaluate the antagonistic activity of the test compounds against CXCR2.
PathHunter® CXCR2 β-arrestin cells (DiscoverX) were grown under normal conditions and seeded on a white-walled 384-microwell plate at 20 μL/well. Before testing, the cells were incubated at 37° C. for an appropriate time. The test compounds were serially diluted in DMSO at a three-fold dilution factor to obtain 8 serially diluted test compounds. Shortly before the test, the above serially diluted test compounds were further diluted with test buffer to 5 times the test concentration. 5 μL of the further diluted test compounds was added to the cells and then the cells were incubated at 37° C. for 30 minutes. The vehicle concentration was 1%. 5 μL of 6×EC80 agonist (CXCL8) buffer was added to the cells and then the cells were incubated at 37° C. for 90 minutes. 15 μL (50% v/v) of PathHunter detection reagent mixture was added in one portion, followed by one-hour incubation to generate the test signal. The microplates were read on a PerkinElmer Envision™ instrument for chemiluminescence signal. The biological activity of the test compounds was analyzed by CBIS data analysis suite (ChemInnovation, CA) and shown as IC50 values.

Data set [2] is described as follows: Pharmacokinetic evaluation in C57BL/6 mice. In kind it is in vivo. The settings on record: male, mouse, plasma; for clearance / half-life / AUC: intravenous 1 mpk / gavage 5 mpk study; for half-life: read-out: Half-life T1/2 (converted); for AUC: route not stated, unit printed shifted under first column, read-out: Area under the drug concentration time curve (AUC); for bioavailability: po, 5 mg/kg, gavage 5 mpk vs intravenous 1 mpk, read-out: Bioavailability (F). On the procedure: The pharmacokinetic parameters of the compounds in C57BL/6 mice were investigated.
C57BL/6 mice (male, 18-30 g, 7-9 weeks old, Shanghai Lingchang Biotechnology Co., Ltd.)
Formulations containing an aqueous solution of 1% DMSO/10% hydroxypropyl-β-cyclodextrin as the vehicle were administered by intravenous injection (1 mpk), formulations containing an aqueous solution of 1% DMSO/1% hydroxypropyl methylcellulose/0.2% Tween 80 as the vehicle were administered by gavage (5 mpk). Before the animal experiment, all animals were fasted, and fed 4 hours after administration; all animals were free to drink water. The time points of blood collection: intravenous injection administration group: 0.083, 0.25, 0.5, 1, 2, 4, 6, 8 and 24 hours; gavage administration group: 0.25, 0.5, 1, 2, 4, 6, 8 and 24 hours.
(§1) Whole blood samples (0.03 mL) were collected through the saphenous vein (or other suitable blood collection sites) at the prescribed time points, and all blood samples were added to labeled plastic centrifuge tubes containing K2-EDTA anticoagulant. After the blood samples were collected, the plasma was isolated by centrifugation, immediately placed in dry ice and stored at low temperature. All samples were analyzed by LC-MS/MS with a minimum detection limit of 2 nM. The non-compartmental model of WinNonlin™ Version 6.3 (Pharsight, Mountain View, Calif.) pharmacokinetic software was used to process the mean plasma concentration, and the linear-log trapezoid method was used to calculate the pharmacokinetic parameters.

Data set [3] in a line: Pharmacokinetic and tissue distribution in Lewis rats. In kind it is in vivo. The note with it: male, rat, lung / plasma, oral, 5 mg/kg, gavage 5 mpk, read-out: Ratio in lung blood. The protocol: The pharmacokinetic and tissue distribution of the compounds in Lewis rats was tested.
Lewis rats (male, 202-239 g, 7-9 weeks old, Beijing Viton Lihua)
Formulations containing an aqueous solution of 1% hydroxypropyl methylcellulose/0.2% Tween 80 as the vehicle were administered by gavage (5 mpk). Before the animal experiment, all animals were fasted overnight, and fed 4 hours after administration; all animals were free to drink water. The time points of blood collection: danirixin administration group: 0.25, 1, 8 hours; gavage administration group: 0.5, 1, 4 hours.
as §1, with “(0.2” for “(0.03”, “separated” for “isolated”, “log-linear” for “linear-log”

Structures are written as SMILES.

CXCR2, sequence (P25025 whole entry): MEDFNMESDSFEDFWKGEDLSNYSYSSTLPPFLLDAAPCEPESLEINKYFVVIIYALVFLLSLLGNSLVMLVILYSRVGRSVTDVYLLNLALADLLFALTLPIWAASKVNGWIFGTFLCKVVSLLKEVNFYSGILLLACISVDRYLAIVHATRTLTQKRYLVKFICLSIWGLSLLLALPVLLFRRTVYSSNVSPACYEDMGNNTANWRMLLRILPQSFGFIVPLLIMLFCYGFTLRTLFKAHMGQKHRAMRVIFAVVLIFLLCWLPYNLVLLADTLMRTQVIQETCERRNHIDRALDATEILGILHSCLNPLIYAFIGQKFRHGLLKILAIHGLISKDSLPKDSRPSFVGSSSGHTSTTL

What is called IC50 is the point on the concentration scale where inhibition reaches its midpoint. A low value points to greater potency in that assay. In the case of `O=C(Nc1ccc(Cl)c(S(=O)(=O)C2CCCCC2)c1O)N[C@H]1CCCc2ccoc21` [WX011A], the IC50 in data set [1] turned out to be 70 nM.

In turn, `CC(C)S(=O)(=O)c1c(Cl)ccc(NC(=O)NC2CCCc3cc(C(F)(F)F)oc32)c1O` (stereo not shown) [WX034] showed an IC50 in data set [1] of 55 nM. On the same count and under the same terms, under `O=C(Nc1ccc(Cl)c(S(=O)(=O)CCNC(=O)C2CC2)c1O)NC1CCCc2ccoc21` (single isomer, unassigned) [WX016A] stands 134 nM. On the same count and under the same terms, in the case of `CS(=O)(=O)c1c(Cl)ccc(NC(=O)N[C@H]2CCCc3ccoc32)c1O` [WX008A] it was 122 nM; in that of `O=C(Nc1ccc(Cl)c(S(=O)(=O)CCN2C(=O)c3ccccc3C2=O)c1O)NC1CCCc2ccoc21` (stereo not shown) [WX014], 232 nM. Still for that read-out and setting: in the case of `O=C(Nc1ccc(Cl)c(S(=O)(=O)C2CC2)c1O)N[C@@H]1CCCc2sccc21` (single isomer, unassigned) [WX025B] it was 139 nM; in that of `O=C(Nc1ccc(Cl)c(S(=O)(=O)C2CC2)c1O)N[C@H]1CCCc2ccsc21` (single isomer, unassigned) [WX027A], 269 nM; in that of `Cc1cc2c(o1)C(NC(=O)Nc1ccc(Cl)c(S(=O)(=O)C3CC3)c1O)CCC2` (stereo not shown) [WX033], 6 nM.

As to `O=C(Nc1ccc(Cl)c(S(=O)(=O)C2CC2)c1O)NC1CCCc2cc(C(F)(F)F)oc21` (stereo not shown) [WX032], in data set [1], the IC50 amounted to 144 nM. Still for that read-out and setting: in the case of `CC(C)(C)S(=O)(=O)c1c(Cl)ccc(NC(=O)NC2CCCc3ccoc32)c1O` (single isomer, unassigned) [WX005A] it was 14 nM. The term bioavailability denotes dose-corrected exposure relative to a reference, in per cent. Compound `O=C(Nc1ccc(Cl)c(S(=O)(=O)CC(F)(F)F)c1O)N[C@H]1CCCc2ccoc21` [WX012A] came in with an IC50 in data set [1] of 17 nM. Also, in data set [2], the clearance amounted to 15.8 mL/min/kg, the half-life is 0.94 h, the AUC turned out to be 9.39 µM·h and the bioavailability came out at 82.5%. As to `Cc1cc2c(o1)C(NC(=O)Nc1ccc(Cl)c(S(=O)(=O)[C@H]3CCCNC3)c1O)CCC2` (single isomer, unassigned) [WX029A], the IC50 in data set [1] is 2 nM. Compound `CCS(=O)(=O)c1c(Cl)ccc(NC(=O)NC2CCCc3ccoc32)c1O` (single isomer, unassigned) [WX007A] gave an IC50 in data set [1] of 42 nM. Take `O=C(Nc1ccc(Cl)c(S(=O)(=O)C2CC3(CNC3)C2)c1O)NC1CCCc2ccoc21` (single isomer, unassigned) [WX021A]: the IC50 in data set [1] was found to be 720 nM. In data set [1], `O=C(Nc1ccc(Cl)c(S(=O)(=O)[C@H]2CCCNC2)c1O)NC1CCCc2ccoc21` (single isomer, unassigned) [WX013A] had an IC50 of 14 nM. Moreover, in data set [2], the clearance turned out to be 30.8 mL/min/kg, the half-life is 2.21 h, the AUC came to 4.44 µM·h and the bioavailability came to 75.5%.

`O=C(Nc1ccc(Cl)c(S(=O)(=O)C2CCCNC2)c1O)NC1CCCc2sccc21` (single isomer, unassigned) [WX024A]: the IC50 in data set [1] amounted to 525 nM.

On to `CC(C)(Cc1ccccc1)S(=O)(=O)c1c(Cl)ccc(NC(=O)N[C@H]2CCCc3ccoc32)c1O` (single isomer, unassigned) [WX020A], for which the IC50 in data set [1] was 177 nM. In data set [1], `O=C(Nc1ccc(Cl)c(S(=O)(=O)C2CC2)c1O)NC1CCCc2ccoc21` (single isomer, unassigned) [WX006A] came in with an IC50 of 22 nM. In data set [2], the clearance came to 8.3 mL/min/kg, the half-life is 3.09 h, the AUC was 20.1 µM·h and the bioavailability was determined as 83.8%. In turn, `O=C(Nc1ccc(Cl)c(S(=O)(=O)[C@H]2CCCNC2)c1O)NC1CCCc2cc(C(F)(F)F)oc21` (single isomer, unassigned) [WX030B] registered an IC50 in data set [1] of 22 nM. For the same compound, the Kp in data set [3] stood at 2.17. As for `O=C(Nc1ccc(Cl)c(S(=O)(=O)[C@H]2CCCNC2)c1O)NC1CCCc2occc21` (single isomer, unassigned) [WX001A], in data set [1], the IC50 is 152 nM. As for `NCCS(=O)(=O)c1c(Cl)ccc(NC(=O)NC2CCCc3ccoc32)c1O` (stereo not shown) [WX015], in data set [1], the IC50 stood at 186 nM. `CC(C)S(=O)(=O)c1c(Cl)ccc(NC(=O)N[C@H]2CCCc3ccoc32)c1O` [WX003A] gave an IC50 in data set [1] of 17 nM. Further, in data set [2], the clearance is 11.2 mL/min/kg, the half-life is 2.22 h, the AUC came to 12.7 µM·h and the bioavailability worked out at 70.3%. As for `Cc1cc2c(o1)C(NC(=O)Nc1ccc(Cl)c(S(=O)(=O)[C@H]3CCCNC3)c1O)CCC2` (stereo partly shown) [WX029], the concentration for half-maximal inhibition (IC50) in data set [1] turned out to be 15 nM. `O=C(Nc1ccc(Cl)c(S(=O)(=O)C2CCNCC2)c1O)N[C@H]1CCCc2ccoc21` (single isomer, unassigned) [WX023A] registered a half-inhibitory concentration (IC50) in data set [1] of 36 nM.

For the compound `O=C(Nc1ccc(Cl)c(S(=O)(=O)C2CCCC2)c1O)N[C@H]1CCCc2ccoc21` [WX010A], in data set [1], the IC50 came out at 61 nM. Still for that read-out and setting: in the case of `Cc1cc2c(o1)C(NC(=O)Nc1ccc(Cl)c(S(=O)(=O)[C@H]3CCCNC3)c1O)CCC2` (single isomer, unassigned) [WX029B] it was 245 nM.

`CC(C)(C)OC(=O)N1CCC[C@H](S(=O)(=O)c2c(Cl)ccc(NC(=O)NC3CCCc4ccoc43)c2O)C1` (single isomer, unassigned) [WX004A] yielded an IC50 in data set [1] of 43 nM.

The compound `O=C(Nc1ccc(Cl)c(S(=O)(=O)C2CC2)c1O)NC1CCCc2ncsc21` (stereo not shown) [WX028] gave an IC50 in data set [1] of 472 nM. The same measure, in the same setting: in the case of `O=C(Nc1ccc(Cl)c(S(=O)(=O)C2CCC2)c1O)NC1CCCc2ccoc21` (stereo not shown) [WX009] it was 177 nM; in that of `CC(C)S(=O)(=O)c1c(Cl)ccc(NC(=O)NC2CCCc3occc32)c1O` (single isomer, unassigned) [WX002A], 45 nM; in that of `COC(=O)NCCS(=O)(=O)c1c(Cl)ccc(NC(=O)NC2CCCc3ccoc32)c1O` (single isomer, unassigned) [WX017A], 72 nM. Same read-out and setting: under `O=C(CS(=O)(=O)c1c(Cl)ccc(NC(=O)NC2CCCc3ccoc32)c1O)NCC(F)(F)F` (single isomer, unassigned) [WX018A] stands 133 nM; under `O=C(Nc1ccc(Cl)c(S(=O)(=O)C2CC3(CCNCC3)C2)c1O)N[C@H]1CCCc2ccoc21` (single isomer, unassigned) [WX022A], 366 nM; under `O=C(Nc1ccc(Cl)c(S(=O)(=O)C2CCCNC2)c1O)NC1CCCc2sccc21` (single isomer, unassigned) [WX024B], 667 nM.

In turn, `CC1(C)NCCCC1S(=O)(=O)c1c(Cl)ccc(NC(=O)NC2CCCc3ccoc32)c1O` (stereo not shown) [WX036] returned an IC50 in data set [1] of 23 nM.

The values above are taken from patent publication US11136315B2, “CXCR2 antagonist” (MEDSHINE DISCOVERY INC., priority 2018, dated 2021).
